Reference: patent US12275731B2, “Azaindole inhibitors of wild-type and mutant forms of LRRK2” (DANA-FARBER CANCER INSTITUTE, INC., priority 2018, dated 2025)

Experiments:
Experiment in all cases: KinomeScan profiling
Assay type in all cases: binding
FAK = FAK (Homo sapiens, UniProt Q05397); details: read-out: % control
In short: (§1)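 Normalised RLU (% control; DMSO 100%, positive control 0%) was measured for compounds dosed at 1 μM over 468 kinases, active cut-off <35%.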

TNNI3K = molecular target: T1, TNNI3K (Homo sapiens, UniProt Q59H18); details: read-out: % control
T1 sequence (Q59H18 1-835): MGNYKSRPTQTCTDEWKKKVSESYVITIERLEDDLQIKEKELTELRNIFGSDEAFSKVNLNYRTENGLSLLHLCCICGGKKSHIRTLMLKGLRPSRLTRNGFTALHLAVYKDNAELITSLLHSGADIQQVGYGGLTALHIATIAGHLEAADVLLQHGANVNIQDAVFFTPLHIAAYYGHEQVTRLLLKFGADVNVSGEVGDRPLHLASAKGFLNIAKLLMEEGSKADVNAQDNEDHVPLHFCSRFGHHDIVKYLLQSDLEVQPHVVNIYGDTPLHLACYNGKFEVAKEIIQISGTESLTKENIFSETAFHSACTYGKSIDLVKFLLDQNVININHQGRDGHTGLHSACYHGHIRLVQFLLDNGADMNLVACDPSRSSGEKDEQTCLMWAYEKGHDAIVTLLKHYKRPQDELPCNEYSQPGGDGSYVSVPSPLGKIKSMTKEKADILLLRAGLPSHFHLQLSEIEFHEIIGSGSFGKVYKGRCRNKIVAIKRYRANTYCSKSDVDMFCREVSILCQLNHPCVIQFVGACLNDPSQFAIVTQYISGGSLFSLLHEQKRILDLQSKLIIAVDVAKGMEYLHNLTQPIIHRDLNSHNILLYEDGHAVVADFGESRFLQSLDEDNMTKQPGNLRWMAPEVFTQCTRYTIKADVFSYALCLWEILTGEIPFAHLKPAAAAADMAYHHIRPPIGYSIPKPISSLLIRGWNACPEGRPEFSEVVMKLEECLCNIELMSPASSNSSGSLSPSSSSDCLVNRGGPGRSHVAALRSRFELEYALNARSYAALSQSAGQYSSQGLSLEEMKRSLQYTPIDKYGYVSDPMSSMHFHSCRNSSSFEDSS
In short: as §1

DMPK = molecular target: T2, DMPK (Homo sapiens, UniProt Q09013); details: read-out: % control
T2 sequence (Q09013 1-629): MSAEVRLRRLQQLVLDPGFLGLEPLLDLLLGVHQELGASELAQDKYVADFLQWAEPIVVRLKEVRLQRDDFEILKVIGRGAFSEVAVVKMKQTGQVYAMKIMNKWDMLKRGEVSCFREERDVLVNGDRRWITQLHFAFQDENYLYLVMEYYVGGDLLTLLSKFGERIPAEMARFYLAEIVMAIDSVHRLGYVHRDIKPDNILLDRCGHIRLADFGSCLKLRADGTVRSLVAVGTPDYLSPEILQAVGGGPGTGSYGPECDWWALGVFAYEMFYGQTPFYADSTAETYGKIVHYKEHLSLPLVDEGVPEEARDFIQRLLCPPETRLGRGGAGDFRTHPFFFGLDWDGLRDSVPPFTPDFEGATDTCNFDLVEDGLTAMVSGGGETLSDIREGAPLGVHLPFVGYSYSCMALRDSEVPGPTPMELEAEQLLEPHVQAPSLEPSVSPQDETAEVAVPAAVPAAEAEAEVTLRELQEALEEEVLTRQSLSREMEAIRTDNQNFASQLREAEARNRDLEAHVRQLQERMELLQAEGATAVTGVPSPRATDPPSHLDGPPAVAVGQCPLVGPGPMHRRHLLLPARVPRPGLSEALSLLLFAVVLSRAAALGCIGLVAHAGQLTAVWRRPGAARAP
In short: as §1

HPK1 = HPK1 (Homo sapiens, UniProt Q92918); details: HPK1, 1 μM; read-out: % control
HPK1, sequence (Q92918 whole entry): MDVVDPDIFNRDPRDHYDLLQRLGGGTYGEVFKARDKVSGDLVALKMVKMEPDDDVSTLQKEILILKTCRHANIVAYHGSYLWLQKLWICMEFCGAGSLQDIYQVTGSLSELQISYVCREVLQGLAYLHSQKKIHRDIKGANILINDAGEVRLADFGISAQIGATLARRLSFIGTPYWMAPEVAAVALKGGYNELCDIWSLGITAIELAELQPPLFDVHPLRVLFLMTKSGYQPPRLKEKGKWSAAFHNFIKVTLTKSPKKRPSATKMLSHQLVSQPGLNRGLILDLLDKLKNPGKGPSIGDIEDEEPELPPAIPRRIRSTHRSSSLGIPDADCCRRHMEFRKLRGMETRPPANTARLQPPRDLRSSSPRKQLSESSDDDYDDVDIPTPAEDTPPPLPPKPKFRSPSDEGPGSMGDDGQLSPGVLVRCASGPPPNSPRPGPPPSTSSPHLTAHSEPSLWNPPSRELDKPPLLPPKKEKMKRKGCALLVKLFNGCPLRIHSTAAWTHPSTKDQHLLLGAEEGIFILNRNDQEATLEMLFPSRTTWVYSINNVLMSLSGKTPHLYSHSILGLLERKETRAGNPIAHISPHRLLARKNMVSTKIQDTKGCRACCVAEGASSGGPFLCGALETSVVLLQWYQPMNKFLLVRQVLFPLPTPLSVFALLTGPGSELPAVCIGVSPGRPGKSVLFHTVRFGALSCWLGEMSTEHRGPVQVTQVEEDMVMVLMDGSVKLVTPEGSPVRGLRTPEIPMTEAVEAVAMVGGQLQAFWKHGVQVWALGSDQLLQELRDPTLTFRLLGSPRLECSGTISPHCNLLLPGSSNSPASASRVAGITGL
In short: as §1

EPHB3 = molecular target: T3, EPHB3 (Homo sapiens, UniProt P54753); details: EPHB3, 1 μM; read-out: % control
T3 sequence (P54753 34-998): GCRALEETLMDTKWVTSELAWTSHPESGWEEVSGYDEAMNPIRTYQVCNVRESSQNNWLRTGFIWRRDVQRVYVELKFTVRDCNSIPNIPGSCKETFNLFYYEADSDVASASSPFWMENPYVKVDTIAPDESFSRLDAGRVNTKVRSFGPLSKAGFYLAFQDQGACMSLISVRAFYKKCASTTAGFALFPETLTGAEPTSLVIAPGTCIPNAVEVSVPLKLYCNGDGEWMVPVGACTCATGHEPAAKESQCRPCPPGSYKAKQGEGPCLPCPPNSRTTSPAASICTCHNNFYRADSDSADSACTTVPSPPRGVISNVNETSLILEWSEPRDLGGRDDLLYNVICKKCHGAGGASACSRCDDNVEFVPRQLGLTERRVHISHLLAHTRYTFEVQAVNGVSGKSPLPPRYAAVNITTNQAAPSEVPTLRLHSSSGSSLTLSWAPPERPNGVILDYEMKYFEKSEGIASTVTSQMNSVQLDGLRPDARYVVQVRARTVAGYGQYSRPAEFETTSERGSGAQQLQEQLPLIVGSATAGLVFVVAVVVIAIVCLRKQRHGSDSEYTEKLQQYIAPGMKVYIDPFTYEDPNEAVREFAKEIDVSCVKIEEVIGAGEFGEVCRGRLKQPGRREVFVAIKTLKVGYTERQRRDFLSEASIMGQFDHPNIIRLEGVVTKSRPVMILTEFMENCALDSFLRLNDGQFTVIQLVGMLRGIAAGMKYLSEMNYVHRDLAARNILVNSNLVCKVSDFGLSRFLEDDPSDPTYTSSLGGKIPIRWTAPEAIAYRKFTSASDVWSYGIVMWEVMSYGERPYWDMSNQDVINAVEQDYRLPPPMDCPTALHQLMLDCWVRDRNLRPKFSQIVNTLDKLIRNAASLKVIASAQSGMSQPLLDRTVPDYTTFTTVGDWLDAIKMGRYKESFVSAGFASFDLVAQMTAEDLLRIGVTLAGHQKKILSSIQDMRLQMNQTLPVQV
In short: as §1

FAK, sequence (Q05397 whole entry): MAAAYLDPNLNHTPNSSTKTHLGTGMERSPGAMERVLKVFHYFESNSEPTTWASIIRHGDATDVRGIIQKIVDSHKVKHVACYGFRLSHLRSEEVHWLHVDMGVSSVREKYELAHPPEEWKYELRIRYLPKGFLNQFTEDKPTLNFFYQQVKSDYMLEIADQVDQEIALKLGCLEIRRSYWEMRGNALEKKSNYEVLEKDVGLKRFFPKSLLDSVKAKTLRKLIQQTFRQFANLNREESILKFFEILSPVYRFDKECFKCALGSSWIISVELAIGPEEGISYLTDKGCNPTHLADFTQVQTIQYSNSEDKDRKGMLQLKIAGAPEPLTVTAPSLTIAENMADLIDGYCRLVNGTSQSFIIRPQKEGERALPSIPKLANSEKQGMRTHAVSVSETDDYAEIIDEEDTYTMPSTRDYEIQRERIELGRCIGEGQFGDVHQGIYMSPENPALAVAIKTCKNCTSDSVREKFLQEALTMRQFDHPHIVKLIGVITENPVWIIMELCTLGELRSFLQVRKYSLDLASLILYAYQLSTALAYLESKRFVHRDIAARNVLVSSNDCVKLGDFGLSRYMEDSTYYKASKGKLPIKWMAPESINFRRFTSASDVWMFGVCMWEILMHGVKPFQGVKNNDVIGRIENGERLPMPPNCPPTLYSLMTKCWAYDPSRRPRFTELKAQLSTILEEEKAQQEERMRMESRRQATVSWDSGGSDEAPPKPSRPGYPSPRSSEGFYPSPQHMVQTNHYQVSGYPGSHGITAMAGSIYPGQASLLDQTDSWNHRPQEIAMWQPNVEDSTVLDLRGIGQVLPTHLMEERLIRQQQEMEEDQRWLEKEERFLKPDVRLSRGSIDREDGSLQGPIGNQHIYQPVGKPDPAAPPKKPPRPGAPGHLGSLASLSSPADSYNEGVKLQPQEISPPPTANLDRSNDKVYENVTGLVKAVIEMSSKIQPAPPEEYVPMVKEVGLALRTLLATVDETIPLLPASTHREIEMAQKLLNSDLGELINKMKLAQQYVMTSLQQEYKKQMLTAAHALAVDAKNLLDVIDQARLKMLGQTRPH

| SMILES | remaining binding at 1 µM (FAK) [%] | remaining binding at 1 µM (TNNI3K) [%] | remaining binding at 1 µM (DMPK) [%] | remaining binding at 1 µM (HPK1) [%] | remaining binding at 1 µM (EPHB3) [%] |
| --- | --- | --- | --- | --- | --- |
| CNc1c(-c2cnn([C@H]3CCN(C(C)=O)C[C@@H]3F)c2)cnc2[nH]cc(Cl)c12 [Compound 77, 1-((3S,4S)-4-(4-(3-chloro-4-(methylamino)-1H-pyrrolo[2,3-b]pyridin-5-yl)-1H-pyrazol-1-yl)-3-fluoropiperidin-1-yl)ethan-1-one] | 90 | 65 | 36 | 6.7 | 100 |
| CNc1c(-c2ccc(C(=O)N3CCC(N4CCOCC4)CC3)cc2)cnc2[nH]cc(Cl)c12 [Compound 96, (4-(3-chloro-4-(methylamino)-1H-pyrrolo[2,3-b]pyridin-5-yl)phenyl)(4-morpholinopiperidin-1-yl)methanone] | 65 | 74 | 36 | 84 | 100 |
| O=C(c1ccc(-c2cnc3[nH]cc(Cl)c3c2NC2CCCC2)cc1)N1CCC(N2CCOCC2)CC1 [Compound 101, (4-(3-chloro-4-(cyclopentylamino)-1H-pyrrolo[2,3-b]pyridin-5-yl)phenyl)(4-morpholinopiperidin-1-yl)methanone] | 71 | 100 | 52 | 53 | 79 |
